The source of these data is US20210205244A1, “PREVENTION AND/OR TREATMENT OF CHRONIC FATIGUE SYNDROME” (BOHNE ASKØY AS, priority 2016, published 2021).

Counter-ions that a name gives are not always drawn.

In series [1] the test system is healthy and ME affected persons. Particulars: general knowledge; cited from earlier work.
The test system of series [2] is Person 5. Description: Medicinal drug use in combination with the treatment. Format: in vivo, human. The settings on record: Person 5, excluded after 20 weeks. How it is done: Three persons were not receiving the drinkable for self-treatment: 2, 5 and 6. […] Person 6 was excluded of toxicological consideration after 20 weeks because massive use of painkiller […] forte, 600 mg: 20 tablets per day, and was practically an abuser of medicinal drugs. Person 2 was excluded because use of sleep medicine-Alimemazin tartrate. All three drugs listed with long list of the negative by-effects. Those effects are very similar to the symptoms on the list of Canadian Criteria. Further treatment with mixture of drinkable oxalates was therefore is not considerate.

Series [3] deals with P12. The settings on record: P12, altogether 8 doses; cited from earlier work.

Regarding `O=C(O)CCCCC1CCSS1` (stereo not drawn) [ALA, alpha-lipoic acid], in series [1], the “Time of excretion via urine post intake” value is 30 to 60 min.

Turning to `CN(C)CCC[C@@]1(c2ccc(F)cc2)OCc2cc(C#N)ccc21` [Escitalopram Oxalate], the “Adverse effect in combination with mixture of drinkable oxalates” value in series [2] is given as “massive diarrhea”.

“Rituximab: Rituximab therapy given in clinical studies at Haukeland University Hospital”: the Response to therapy result in series [3] is reported as “non-responder”.
